From patent US11957687B2 (REGENERON PHARMACEUTICALS, INC., priority 2019, dated 2024)
pIC50: −log10 of the molar value.

Target: HSD17B13 (Homo sapiens (Human), UniProt Q7Z5P4)
Assay: HSD17B13 enzymatic inhibition assay (150 nM or 50 nM HSD17B13)
Assay type: biochemical
Settings: 50 nM HSD17B13; read-out: Inhibition of 50 nM of HSD17B13 IC50

Chain of HSD17B13 (Q7Z5P4 other isoform, or with tags, fused parts or gaps): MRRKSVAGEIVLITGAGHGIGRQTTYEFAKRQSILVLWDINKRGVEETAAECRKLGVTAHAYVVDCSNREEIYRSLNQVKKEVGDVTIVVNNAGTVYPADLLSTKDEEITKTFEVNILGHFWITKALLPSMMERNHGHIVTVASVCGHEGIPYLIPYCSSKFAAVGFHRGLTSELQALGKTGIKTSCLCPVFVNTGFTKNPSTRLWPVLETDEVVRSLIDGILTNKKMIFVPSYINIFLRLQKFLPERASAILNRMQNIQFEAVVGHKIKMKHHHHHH

| SMILES | pIC50 |
| --- | --- |
| COc1c(C)ccc2c1CCCC2NC(=O)c1ccc(C(F)(F)F)[nH]c1=O (stereo not drawn) [Compound 232, N-(5-methoxy-6-methyl-1,2,3,4-tetrahydronaphthalen-1-yl)-2-oxo-6-(trifluoromethyl)-1,2-dihydropyridine-3-carboxamide] | 5.57 |
| Cc1ccc2c(c1)C(NC(=O)c1ccc(C(F)(F)F)[nH]c1=O)CCO2 (stereo not drawn) [Compound 233, N-(6-methylchroman-4-yl)-2-oxo-6-(trifluoromethyl)-1,2-dihydropyridine-3-carboxamide] | 5.88 |
| Cc1ccc2c(c1)C(NC(=O)c1ccc(C(F)(F)F)[nH]c1=O)CCS2 (stereo not drawn) [Compound 236, N-(6-methylthiochroman-4-yl)-2-oxo-6-(trifluoromethyl)-1,2-dihydropyridine-3-carboxamide] | 6.13 |
| Cc1ccc2c(c1)CCC2NC(=O)c1ccc(C(F)(F)F)[nH]c1=O (stereo not drawn) [Compound 238, N-(5-methyl-2,3-dihydro-1H-inden-1-yl)-2-oxo-6-(trifluoromethyl)-1,2-dihydropyridine-3-carboxamide] | 6.17 |
| COc1ccccc1C(NC(=O)c1ccc(C(F)(F)F)[nH]c1=O)c1cccc(C)c1 (stereo not drawn) [Compound 243, N-((2-methoxyphenyl)(m-tolyl)methyl)-2-oxo-6-(trifluoromethyl)-1,2-dihydropyridine-3-carboxamide] | 5.67 |
| CSc1ccccc1C(NC(=O)c1ccc(C(F)(F)F)[nH]c1=O)c1cccc(C)c1 (stereo not drawn) [Compound 245, N-((2-(methylthio)phenyl)(m-tolyl)methyl)-2-oxo-6-(trifluoromethyl)-1,2-dihydropyridine-3-carboxamide] | 5.97 |
| CSc1c(C)cccc1C(NC(=O)c1ccc(C(F)(F)F)[nH]c1=O)c1ccccc1 (stereo not drawn) [Compound 247, N-((3-methyl-2-(methylthio)phenyl)(phenyl)methyl)-2-oxo-6-(trifluoromethyl)-1,2-dihydropyridine-3-carboxamide] | 6.03 |
| O=C(NC1c2ccc(Cl)cc2Sc2cccc(Cl)c21)c1ccc(C(F)(F)F)[nH]c1=O (stereo not drawn) [Compound 251, N-(1,6-dichloro-9H-thioxanthen-9-yl)-2-oxo-6-(trifluoromethyl)-1,2-dihydropyridine-3-carboxamide] | 6.19 |
| Cc1ccc2c(c1)Sc1cccc(C)c1C2NC(=O)c1ccc(C(F)(F)F)[nH]c1=O (stereo not drawn) [Compound 253, N-(1,6-dimethyl-9H-thioxanthen-9-yl)-2-oxo-6-(trifluoromethyl)-1,2-dihydropyridine-3-carboxamide] | 5.37 |
| O=C(NC1c2ccc(Cl)cc2Oc2cccc(Cl)c21)c1ccc[nH]c1=O (stereo not drawn) [Compound 254, N-(1,6-dichloro-9H-xanthen-9-yl)-2-oxo-1,2-dihydropyridine-3-carboxamide] | < 5.00 |
| O=C(NC1c2ccc(Cl)cc2Oc2cc(Cl)ccc21)c1ccc[nH]c1=O [Compound 255, N-(3,6-dichloro-9H-xanthen-9-yl)-2-oxo-1,2-dihydropyridine-3-carboxamide] | < 5.00 |
| COc1cc(C)cc2c1CCC2NC(=O)c1ccc(C(F)(F)F)[nH]c1=O (stereo not drawn) [Compound 256, N-(4-methoxy-6-methyl-2,3-dihydro-1H-inden-1-yl)-2-oxo-6-(trifluoromethyl)-1,2-dihydropyridine-3-carboxamide] | < 5.00 |
| COc1c(C)ccc2c1CCC2NC(=O)c1ccc(C(F)(F)F)[nH]c1=O (stereo not drawn) [Compound 257, N-(4-methoxy-5-methyl-2,3-dihydro-1H-inden-1-yl)-2-oxo-6-(trifluoromethyl)-1,2-dihydropyridine-3-carboxamide] | 5.15 |
| O=C(NC1CCCc2c(O)cccc21)c1ccc(SCc2cccc(C(F)(F)F)c2)[nH]c1=O (stereo not drawn) [Compound 261, N-(5-hydroxy-1,2,3,4-tetrahydronaphthalen-1-yl)-2-oxo-6-((3-(trifluoromethyl)benzyl)thio)-1,2-dihydropyridine-3-carboxamide] | 5.16 |
| O=C(N[C@@H]1C[C@H](CCO)Cc2ccccc21)c1ccc(C(F)(F)F)[nH]c1=O [Compound 262, N-((1R,3R)-3-(2-hydroxyethyl)-1,2,3,4-tetrahydronaphthalen-1-yl)-2-oxo-6-(trifluoromethyl)-1,2-dihydropyridine-3-carboxamide] | 6.01 |
| O=C(N[C@@H]1C[C@@H](CCO)Cc2ccccc21)c1ccc(C(F)(F)F)[nH]c1=O [Compound 263, N-((1R,3S)-3-(2-hydroxyethyl)-1,2,3,4-tetrahydronaphthalen-1-yl)-2-oxo-6-(trifluoromethyl)-1,2-dihydropyridine-3-carboxamide] | 5.07 |
| O=C(NC1CC(CO)Cc2ccccc21)c1ccc(C(F)(F)F)[nH]c1=O (stereo not drawn) [Compound 264, N-(3-(hydroxymethyl)-1,2,3,4-tetrahydronaphthalen-l-yl)-2-oxo-6-(trifluoromethyl)-1,2-dihydropyridine-3-carboxamide] | 5.01 |
| C=CCc1cc(NC(=O)c2ccc(C(F)(F)F)[nH]c2=O)cc(CC=C)n1 [Compound 267, N-(2,6-diallylpyridin-4-yl)-2-oxo-6-(trifluoromethyl)-1,2-dihydropyridine-3-carboxamide] | 5.03 |
| CCCc1cc(NC(=O)c2ccc(C(F)(F)F)[nH]c2=O)cc(CCC)n1 [Compound 268, N-(2,6-dipropylpyridin-4-yl)-2-oxo-6-(trifluoromethyl)-1,2-dihydropyridine-3-carboxamide] | < 5.00 |
| C=CCc1cc(NC(=O)c2ccc(C(F)(F)F)[nH]c2=O)cc(/C=C/C)n1 [Compound 269, (E)-N-(2-allyl-6-(prop-1-en-1-yl)pyridin-4-yl)-2-oxo-6-(trifluoromethyl)-1,2-dihydropyridine-3-carboxamide] | 5.30 |
| C=CCc1cc(CC=C)cc(NC(=O)c2ccc(C(F)(F)F)[nH]c2=O)c1 [Compound 270, N-(3,5-diallylphenyl)-2-oxo-6-(trifluoromethyl)-1,2-dihydropyridine-3-carboxamide] | 5.86 |

More lines, in order of rising pIC50, values ahead:

| pIC50 | SMILES |
| --- | --- |
| 6.19 | Cc1ccc2c(c1N)CCC2NC(=O)c1ccc(C(F)(F)F)[nH]c1=O (stereo not drawn) [Compound 266, N-(4-amino-5-methyl-2,3-dihydro-1H-inden-1-yl)-2-oxo-6-(trifluoromethyl)-1,2-dihydropyridine-3-carboxamide] |
| 6.31 | Cc1ccc2c(c1)C(NC(=O)c1ccc(C(F)(F)F)[nH]c1=O)CC2 (stereo not drawn) [Compound 237, N-(6-methyl-2,3-dihydro-1H-inden-1-yl)-2-oxo-6-(trifluoromethyl)-1,2-dihydropyridine-3-carboxamide] |
| 6.41 | O=C(NC1c2ccccc2Sc2ccc(Cl)cc21)c1ccc(C(F)(F)F)[nH]c1=O (stereo not drawn) [Compound 249, N-(2-chloro-9H-thioxanthen-9-yl)-2-oxo-6-(trifluoromethyl)-1,2-dihydropyridine-3-carboxamide] |
| 6.52 | CSc1ccccc1C(NC(=O)c1ccc(C(F)(F)F)[nH]c1=O)c1ccc(C)cc1 (stereo not drawn) [Compound 246, N-((2-(methylthio)phenyl)(p-tolyl)methyl)-2-oxo-6-(trifluoromethyl)-1,2-dihydropyridine-3-carboxamide] |
| 6.52 | Cc1ccc2c(c1)C(NC(=O)c1ccc(C(F)(F)F)[nH]c1=O)c1ccccc1S2 (stereo not drawn) [Compound 248, N-(2-methyl-9H-thioxanthen-9-yl)-2-oxo-6-(trifluoromethyl)-1,2-dihydropyridine-3-carboxamide] |
| 6.54 | COc1ccccc1C(NC(=O)c1ccc(C(F)(F)F)[nH]c1=O)c1ccc(C)cc1 (stereo not drawn) [Compound 244, N-((2-methoxyphenyl)(p-tolyl)methyl)-2-oxo-6-(trifluoromethyl)-1,2-dihydropyridine-3-carboxamide] |
| 6.96 | COc1ccc2c(c1)Oc1cc(OC)ccc1C2NC(=O)c1cc(C)c(C(F)(F)F)[nH]c1=O [Compound 240, N-(3,6-dimethoxy-9H-xanthen-9-yl)-5-methyl-2-oxo-6-(trifluoromethyl)-1,2-dihydropyridine-3-carboxamide] |
| 7.00 | COc1ccc2c(c1)Oc1cc(OC)ccc1C2NC(=O)c1cc(-c2ccccc2)c(C(F)(F)F)[nH]c1=O [Compound 239, N-(3,6-dimethoxy-9H-xanthen-9-yl)-2-oxo-5-phenyl-6-(trifluoromethyl)-1,2-dihydropyridine-3-carboxamide] |
| 7.00 | Cc1ccc2c(c1)Sc1ccccc1C2NC(=O)c1ccc(C(F)F)[nH]c1=O (stereo not drawn) [Compound 275, 6-(difluoromethyl)-N-(3-methyl-9H-thioxanthen-9-yl)-2-oxo-1,2-dihydropyridine-3-carboxamide] |
| 7.10 | CCC[C@H]1C[C@@H](NC(=O)c2cc(-c3ccccc3)c(C(F)(F)F)[nH]c2=O)c2cc(C)ccc2N1 [Compound 265, N-((2S,4R)-6-methyl-2-propyl-1,2,3,4-tetrahydroquinolin-4-yl)-2-oxo-5-phenyl-6-(trifluoromethyl)-1,2-dihydropyridine-3-carboxamide] |
| 7.15 | COc1ccc2c(c1)Sc1ccccc1C2NC(=O)c1ccc(C(F)(F)F)[nH]c1=O (stereo not drawn) [Compound 242, N-(3-methoxy-9H-thioxanthen-9-yl)-2-oxo-6-(trifluoromethyl)-1,2-dihydropyridine-3-carboxamide] |
| 7.15 | COc1ccc2c(c1)Oc1cc(OC)ccc1C2NC(=O)c1cc(OC2CCOCC2)c(C(F)(F)F)[nH]c1=O [Compound 259, N-(3,6-dimethoxy-9H-xanthen-9-yl)-2-oxo-5-((tetrahydro-2H-pyran-4-yl)oxy)-6-(trifluoromethyl)-1,2-dihydropyridine-3-carboxamide] |
| 7.22 | O=C(NC1c2ccc(Cl)cc2Sc2cc(Cl)ccc21)c1ccc(C(F)(F)F)[nH]c1=O [Compound 250, N-(3,6-dichloro-9H-thioxanthen-9-yl)-2-oxo-6-(trifluoromethyl)-1,2-dihydropyridine-3-carboxamide] |
| 7.52 | Cc1ccc2c(c1O)CCCC2NC(=O)c1ccc(C(F)(F)F)[nH]c1=O (stereo not drawn) [Compound 231, N-(5-hydroxy-6-methyl-1,2,3,4-tetrahydronaphthalen-1-yl)-2-oxo-6-(trifluoromethyl)-1,2-dihydropyridine-3-carboxamide] |
| 8.00 | Cc1ccc2c(c1)Sc1cc(C)ccc1C2NC(=O)c1cc(OC2CCOCC2)c(C(F)(F)F)[nH]c1=O [Compound 258, N-(3,6-dimethyl-9H-thioxanthen-9-yl)-2-oxo-5-((tetrahydro-2H-pyran-4-yl)oxy)-6-(trifluoromethyl)-1,2-dihydropyridine-3-carboxamide] |
